Data published in PubChem BioAssay (NCI).
Where “and” joins values, the source holds several entries; their conditions need not be identical. Equal entries are not always repeated.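 Exposure lasted 48 hours, with cells grown in 96-well plates and compounds tested at five concentrations. GI50 = concentration required for 50% inhibition of growth. TGI: total growth inhibition.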

Key:
Assay in all cases: inhibition of tumour cell growth, NCI panel, 48 h
IGROV1 ovarian = system: IGROV1 ovarian
UACC-257 melanoma = system: UACC-257 melanoma
HT29 colon = system: HT29 colon
CAKI-1 renal = system: CAKI-1 renal
SK-MEL-28 melanoma = system: SK-MEL-28 melanoma
OVCAR-3 ovarian = system: OVCAR-3 ovarian
RXF 393 renal = system: RXF 393 renal
HL-60(TB) leukemia = system: HL-60(TB) leukemia

| Compound | GI50 (IGROV1 ovarian) | GI50 (UACC-257 melanoma) | TGI (UACC-257 melanoma) | GI50 (HT29 colon) | GI50 (CAKI-1 renal) | GI50 (SK-MEL-28 melanoma) | TGI (SK-MEL-28 melanoma) | GI50 (OVCAR-3 ovarian) | TGI (OVCAR-3 ovarian) | GI50 (RXF 393 renal) | TGI (RXF 393 renal) | GI50 (HL-60(TB) leukemia) | TGI (IGROV1 ovarian) | TGI (HT29 colon) | TGI (CAKI-1 renal) | TGI (HL-60(TB) leukemia) |
| --- | --- | --- | --- | --- | --- | --- | --- | --- | --- | --- | --- | --- | --- | --- | --- | --- |
| COc1ccc2c(c1)nnc1c3cccnc3[nH]c21 | 0.31 µM and 0.55 µM | 7.49 µM and 1.91 µM | 41 µM and 10.7 µM | 0.751 µM and 0.541 µM | 0.108 µM and 0.594 µM | 11.8 µM and 11.2 µM | 50 µM and > 100 µM | 0.964 µM and 1.17 µM | 2.43 µM and 4.09 µM | 0.66 µM and 1.76 µM | 2.15 µM and 12.6 µM | 0.158 µM and 0.243 µM | – | – | – | – |
| COC(=O)c1cc2cc(/C=C3/SC(=S)N(N(C(C)=O)C(C)=O)C3=O)oc2n1Cc1ccccc1 | 22.4 µM | 25 µM | 74.9 µM | 37.4 µM | 14.2 µM | 38.4 µM | > 100 µM | 19.5 µM | 51 µM | 22 µM | 56.7 µM | – | 57.3 µM | > 100 µM | 40.8 µM | – |
| O=C1/C(=C/c2ccc(C(F)(F)F)cc2)COc2ccc(O)c(O)c21 | 0.476 µM | 1.58 µM | 3.46 µM | – | 1.11 µM | 1.72 µM | 3.15 µM | 0.514 µM | 1.84 µM | 1.6 µM | 3.05 µM | 0.52 µM | 1.84 µM | – | 2.38 µM | 3.06 µM |
| CCC(c1ccccc1)c1cc(C(C)(C)C)cc(C(C)(C)C)c1O (configuration not stated) | – | – | 28.5 µM | – | – | – | 32.5 µM | – | 27.2 µM | – | 34.2 µM | – | 30.7 µM | 28 µM | 29.8 µM | – |
| O=C(CI)Nc1ccc(Br)cc1 | 2.35 µM | 2.05 µM | 4.66 µM | 2.43 µM | 1.69 µM | 3.82 µM | 11.3 µM | 1.72 µM | 3.25 µM | 1.7 µM | 3.21 µM | – | 4.88 µM | 5.28 µM | 3.51 µM | – |
| CCOC(=O)/C=C1/SC(=Nc2ccc(C#N)cc2)N(Cc2ccco2)C1=O | 3.22 µM | 5.34 µM | 18.4 µM | 2.11 µM | – | 2.92 µM | 10.5 µM | 1.82 µM | 3.52 µM | 1.48 µM | 2.96 µM | 2.38 µM | 20.2 µM | 4.61 µM | – | 5.76 µM |
| Cc1cc(N(CCNc2ccnc3cc(Cl)ccc23)Cc2ccc3c(c2)OCO3)nc(N2CCCC2)n1 | 1.54 µM | 1.64 µM | 3.24 µM | 0.706 µM | – | 1.68 µM | 3.2 µM | 1.74 µM | 3.81 µM | 1.28 µM | 2.74 µM | 1.95 µM | 3.64 µM | 3.66 µM | – | 4.06 µM |
| N#CC1=C(N)OC2=C(CCOc3c2ccc2ccccc32)C1c1ccc(Br)cc1 (configuration not stated) | – | – | – | 36.7 µM | 15.1 µM | 61.5 µM | > 100 µM | 15.1 µM | 39.4 µM | 22.8 µM | 80.9 µM | 17 µM | – | > 100 µM | 80.6 µM | 37.6 µM |
| Cc1c(-c2ccccn2)ccc2ccccc12 | – | – | > 100 µM | – | – | – | > 100 µM | – | > 100 µM | – | 93.2 µM | – | – | > 100 µM | > 100 µM | > 100 µM |
| CC/C=C\C[C@H]1C/C=C2/C(=O)C(Cl)=C[C@@H]2C/C=C\CCCC(=O)O1 | 0.605 µM | – | – | 0.325 µM | 0.45 µM | 0.46 µM | 1.15 µM | 0.153 µM | 0.677 µM | 0.4 µM | 0.802 µM | 0.527 µM | 1.94 µM | 0.79 µM | 1.51 µM | 2.7 µM |
| O=C(NCCNCCO)c1ccc(Nc2nc3ccccc3c3occc23)cc1 | 6.71 µM | – | – | 29.3 µM | 17.3 µM | 23.7 µM | 58.4 µM | 6.22 µM | 22.8 µM | – | – | – | 25.1 µM | > 100 µM | 33.1 µM | – |
| O=C1C(Cl)=C(NCCCN(CCCNC2=C(Cl)C(=O)c3ccccc3C2=O)C2=C(Cl)C(=O)c3ccccc3C2=O)C(=O)c2ccccc21 | 1.76 µM | – | – | – | – | 2.15 µM | 4.53 µM | 1.71 µM | 5.71 µM | 10.7 µM | 22.5 µM | – | 6.13 µM | – | – | – |
| COc1cc(-c2ccc[nH]2)[nH]c1/C=C1\N=C(C)C(CC(=O)OCC(C)(C)C)=C1C | – | 0.339 µM | 1.52 µM | 0.172 µM | 0.263 µM | 0.305 µM | 1.34 µM | 0.254 µM | 1.15 µM | 0.258 µM | 1.21 µM | 0.239 µM | – | 1.17 µM | 1.13 µM | 0.801 µM |
| Clc1ccc(-c2nc(NCc3ccco3)c3ccccc3n2)c(Cl)c1 | 22.2 µM | – | – | – | 8.82 µM | 24.5 µM | > 100 µM | 11.6 µM | 29.7 µM | 20.4 µM | 43.1 µM | – | > 100 µM | – | 31 µM | – |
| C[C@]12CCC(=O)C[C@@H]1CC[C@@H]1[C@@H]2CC[C@]2(C)[C@@H](OC(=O)N(CCCl)N=O)CC[C@@H]12 | 1.47 µM | 1.14 µM | 8.58 µM | 2.75 µM | 0.591 µM | 6.43 µM | 23 µM | 3.53 µM | 15.9 µM | – | – | 0.259 µM | 12.8 µM | > 39 µM | 12 µM | > 33 µM |
| COc1ccc(C(O)c2ccccn2)cc1 (configuration not stated) | – | – | > 100 µM | – | – | – | > 100 µM | – | > 100 µM | – | > 100 µM | – | > 100 µM | > 100 µM | > 100 µM | – |
| COc1cc(C(=O)O[C@H](C(=O)NCCCCNC(=O)[C@@H](OC(=O)c2cc(OC)cc3c(C)cccc23)[C@]2(C)CO2)[C@]2(C)CO2)c2cccc(C)c2c1 | – | – | 0.222 µM | 0.104 µM | 0.0122 µM | 0.0409 µM | 50 µM | 0.207 µM | 0.73 µM | – | – | < 0.01 µM | 0.944 µM | > 100 µM | 0.0986 µM | < 0.01 µM |
| CCCCCCCCN=C(NCCCCCCCC)SCc1cccc2ccccc12 | – | 1.75 µM | 3.33 µM | 0.839 µM | 1.56 µM | 1.95 µM | 3.44 µM | 1.72 µM | 3.21 µM | 1.42 µM | 2.78 µM | 1.23 µM | – | 2.16 µM | 2.97 µM | 3.01 µM |
| C=CCSC(C)=O | – | – | – | – | – | – | > 100 µM | – | > 100 µM | – | – | – | > 100 µM | > 100 µM | > 100 µM | > 100 µM |
